The values that follow come from patent US20030175964A1, “Use of eicosanoids for tissue engineering” (Kantonsspital Basel, priority 2000, published 2003).

The test system of one assay is human chondrocytes. In words: Redifferentiation of expanded human chondrocytes in pellet culture, real-time quantitative PCR of differentiation indexes. It counts as cell-based. On the procedure:
Human articular cartilage samples were collected from the hip of 3 patients with no history of joint disease, undergoing joint replacement, following femoral neck fracture.
The cartilage samples were harvested aseptically and digested with 0.15% type II collagenase for 22 hours to isolate primary chondrocytes. The cells were washed and resuspended in Dulbecco's modified Eagles medium (DMEM) supplemented with 10% fetal bovine serum, 4′500 mg/l D-Glucose, nonessential amino acids, 1 mM sodium pyruvate, 100 mM HEPES buffer, 100 U/ml penicillin, 100 μg/ml streptomycin, and 0.29 mg/ml L-glutamine (control medium, CTR). Chondrocytes were seeded into tissue culture flasks at approximately 10^4 cells/cm^2 and cultured in a humidified 37° C./5% CO^2 incubator.
After approximately 10 days, when the cells were confluent, first passage cells (P1) were detached using 0.25% trypsin/1 mM EDTA and replated at 5×10^3 cells/cm^2. After one more week, when the cells reached again confluency, second passage (P2) cells were trypsinised and cultured in pellets. Throughout the expansion phase, cells were cultured in control medium, with or without the addition of 5 ng/ml of Fibroblast Growth Factor-2 (FGF-2).
The cells were suspended at 5×10^5 cells/0.5 ml of serum-free medium (SF) consisting of DMEM supplemented with ITS+1 (containing 10 μg/ml insulin, 5.5 μg/ml transferrin, 5 ng/ml selenium, 0.5 mg/ml bovine serum albumin, 4.7 μg/ml linoleic acid), 0.1 mM ascorbic-acid 2-Phosphate, and 1.25 μg/ml human serum albumin. This suspension was centrifuged at less than 8000 rpm for 15 seconds in polypropylene conical tubes to form spherical pellets which were then statically incubated in a humidified 37° C./5% CO^2 incubator for 24 hours. […]
P, alone or in combination with A and/or D and/or H and/or T, was supplemented to the SF medium during 3D culture of the human chondrocyte cell pellets. After two weeks, the differentiation indexes (CII/CI and Agg/Ver) were assessed. […]
Further, for each primary culture, 2 pellets were formed per experimental group and assessed histologically and for quantitative PCR as described below.
Theoretical Basis. Real-time quantitative PCR monitors the degradation of a sequence-specific, dual-labeled fluorescent probe after each cycle of PCR amplification. […] After subtraction of the background fluorescence, calculated during the first 15 amplification cycles, the measured fluorescence is graphed as an amplification plot. […] The Ct value is correlated to input target mRNA amount: a larger starting quantity of mRNA target results in a lower number of PCR cycles required for the reporter fluorescent emission to reach the threshold, and therefore a lower Ct value. […]

The subject of the next assay is chondrocytes. The note with it: cited from earlier work.
[1] abbreviates: SF medium supplemented with P, 1 μg/ml, two weeks, vs control culture.

Regarding `CCCCC[C@H](O)/C=C/[C@H]1[C@H](O)CC(=O)[C@@H]1C/C=C\CCCC(=O)O` [P, prostaglandin E2], in the assay on human chondrocytes (setting [1]), the “Agg/Ver differentiation index, increase compared to the control culture” value is “at least 2 orders of magnitude” and the “CII/CI differentiation index, increase compared to the control culture” value is given as “at least 2 orders of magnitude”. The “effects on differentiation indexes and CI mRNA on chondrocytes expanded with FGF-2” value in the assay on human chondrocytes (chondrocytes expanded with 5 ng/ml FGF-2, compared with those expanded without FGF-2) is recorded as “comparable”. Moreover, the “expression of CI (collagen type I) mRNA” value in the assay with human chondrocytes (pellets, SF medium supplemented with P) is given as “decrease”.
Take “FGF-2: fibroblast growth factor-2, growth factor added during monolayer expansion of chondrocytes”: the “cartilaginous tissue formed after seeding onto three-dimensional polymer scaffolds” value in the assay on chondrocytes (chondrocytes expanded in the presence of FGF-2, versus freshly isolated (primary) chondrocytes) was “histologically and biochemically comparable to that obtain using freshly isolated chondrocytes”. Also, the “formation of thick F-actin structures during monolayer expansion” value with chondrocytes (monolayer expansion in the presence of FGF-2) was “inhibits”.
